Measured values reported in patent US8633251B2, “Derivatives of aminoalkanols, method of obtaining of aminoalkanols and their use” (Uniwersytet Jagiellonski, priority 2008, dated 2014).

Tests used:
[1] = tested on: maximal electroshock seizures; test: Maximum Electroshock Seizure (MES) test, mice; format: in vivo; settings: mice
Description: (§1) In order to define anticonvulsant activity, screening tests were performed, using animal models of seizures. […] Each substance (after dissolving in methylcellulose) was normally tested in doses 30, 100, and 300 mg/kg body weight (b.w.) (mice) or in 30 and 50 mg/kg b.w. (rats) in two possible routes of administration: intraperitoneal (i.p.) or oral (p.o.). Appropriate tests were performed 0.5 and 4 h after administration of the compound. […] (mice) the tests were also performed in doses 10 and 3 mg/kg b.w.
Maximum Electroshock Seizure (MES) test is an electric test, verifying activity towards generalized tonic-clonic seizures (grand mal epilepsy). […] Its procedure consists in administration to an animal a mentioned dose, and after 0.5 or 4 h attaching corneal electrodes (after anesthetic eye-drops: 0.5% tetracaine hydrochloride in 0.9% NaCl) and turning on electric current (60 Hz, 0.2 s, 50 mA (mice) or 150 mA (rats)). […] Normally, in the dose 30 mg/kg b.w. the test is done in 1 mouse after 0.5 or 4 h, in the dose 100 mg/kg b.w.—in 3 mice, and in the dose 300 mg/kg b.w.—in 1 mouse.

neurotoxicity (rotarod) = test: Neurotoxicity test (TOX), rotarod, mice; format: in vivo
Description: as §1
It is performed with use of rotarod test. The animal is placed on a plastic rod (1 inch in diameter), rotating 6 rpm. The rod is placed on a level discouraging the animal to jump off. […] Neurotoxicity is stated if the animal cannot stay on the rod for 1 min. in any of 3 trials. Normally the test is performed in dose 30 mg/kg b.w. in 4 mice (0.5 h) and in 2 mice (4 h), in the dose 100 mg/kg b.w. in 8 mice (0.5 h) and in 4 mice (4 h) and in the dose 300 mg/kg b.w. in 4 mice (0.5 h) and 2 mice (4 h).

[2] = dose 100 mg/kg b.w., time 0.5 h
[3] = mice, dose 100 mg/kg b.w., time 0.5 h
[4] = mice, dose 300 mg/kg b.w., time 0.5 h
[5] = mice, dose 30 mg/kg b.w., 0.5 h
[6] = mice, dose 100 mg/kg b.w., 0.5 h
[7] = mice, dose 300 mg/kg b.w., 0.5 h

Structure (SMILES)	MES, No. of protected animals/No. of used animals [1, 2]	TOX, No. of animals exhibiting motor impairment/no. of used animals (neurotoxicity (rotarod); mouse, in vivo, 100 mg/kg)	TOX, No. of animals exhibiting motor impairment/no. of used animals (neurotoxicity (rotarod); mouse, in vivo, 300 mg/kg)	MES, No. of protected animals/No. of used animals ([1]; dose 100 mg/kg b.w., 0.5 h)	TOX, No. of animals exhibiting motor impairment/no. of used animals (neurotoxicity (rotarod); [6])	TOX, No. of animals exhibiting motor impairment/no. of used animals (neurotoxicity (rotarod); [7])	other results
Cc1cccc(C)c1OCCN(C)C(C)CO.Cl (racemic) [Compound 14, R,S-2N-[(2,6-dimethylphenoxy)ethyl]-2N-methylamino-1-propanol hydrochloride]	1/1	8/8	4/4				MES, No. of protected animals/No. of used animals ([1]; dose 30 mg/kg b.w., time 0.5 h): 1/1; TOX, No. of animals exhibiting motor impairment/no. of used animals (neurotoxicity (rotarod); mouse, in vivo, 30 mg/kg): 1/4
Cc1cccc(C)c1OCCN(C)CC(O)c1ccccc1.Cl (racemic) [Compound 22, R,S-2N-[(2,6-dimethylphenoxy)ethyl]-2N-methylamino-1-phenylethanol hydrochloride]	2/2						MES, No. of protected animals/No. of used animals ([1]; dose 100 mg/kg b.w., time 4 h): 2/2; TOX, No. of animals exhibiting motor impairment/no. of used animals (neurotoxicity (rotarod); [3]): 8/8; TOX, No. of animals exhibiting motor impairment/no. of used animals (neurotoxicity (rotarod); [4]): 4/4
Cc1cccc(OCCCNC(C)CO)c1C (racemic) [Compound 46, R,S-2N-[(2,3-dimethylphenoxy)propyl]amino-1-propanol]	3/3	8/8	4/4				
CCC(CO)NCCCOc1cccc(C)c1C (racemic) [Compound 48, R,S-2N-[(2,3-dimethylphenoxy)propyl]amino-1-butanol]	3/3	8/8	4/4				
Cc1cccc(OCCCNCC(O)c2ccccc2)c1C (racemic) [Compound 49, R,S-2N-[(2,3-dimethylphenoxy)propyl]amino-1-phenylethanol]							MES, No. of protected animals/No. of used animals ([1]; dose 300 mg/kg b.w., time 0.5 h): 1/1; TOX, No. of animals exhibiting motor impairment/no. of used animals (neurotoxicity (rotarod); mice, dose 30 mg/kg b.w., time 0.5 h): 1/4; TOX, No. of animals exhibiting motor impairment/no. of used animals (neurotoxicity (rotarod); mice, dose 30 mg/kg b.w., time 4 h): 1/2; TOX, No. of animals exhibiting motor impairment/no. of used animals (neurotoxicity (rotarod); [3]): 6/8; TOX, No. of animals exhibiting motor impairment/no. of used animals (neurotoxicity (rotarod); mice, dose 100 mg/kg b.w., time 4 h): 3/4; TOX, No. of animals exhibiting motor impairment/no. of used animals (neurotoxicity (rotarod); [4]): 4/4; TOX, No. of animals exhibiting motor impairment/no. of used animals (neurotoxicity (rotarod); mice, dose 300 mg/kg b.w., time 4 h): 2/2
Cc1cccc(C)c1OCCCNCC(C)O (racemic) [Compound 50, R,S-1N-[(2,6-dimethylphenoxy)propyl]amino-2-propanol]	3/3		4/4				MES, No. of protected animals/No. of used animals ([1]; dose 30 mg/kg b.w., time 0.5 h): 1/1; TOX, No. of animals exhibiting motor impairment/no. of used animals (neurotoxicity (rotarod); mouse, in vivo, 30 mg/kg): 3/4
Cc1cccc(C)c1OCCCNC(C)CO (racemic) [Compound 51, R,S-2N-[(2,6-dimethylphenoxy)propyl]amino-1-propanol]			4/4	3/3			MES, No. of protected animals/No. of used animals ([1]; dose 30 mg/kg b.w., 0.5 h): 1/1; TOX, No. of animals exhibiting motor impairment/no. of used animals (neurotoxicity (rotarod); mouse, in vivo, 30 mg/kg): 2/4
CCC(CO)NCCCOc1c(C)cccc1C.Cl (racemic) [Compound 55, R,S-2N-[(2,6-dimethylphenoxy)propyl]amino-1-butanol hydrochloride]		8/8	4/4	3/3			MES, No. of protected animals/No. of used animals ([1]; dose 30 mg/kg b.w., 0.5 h): 1/1
Cc1cccc(C)c1OCCCNCC(O)c1ccccc1 (racemic) [Compound 56, R,S-2N-[(2,6-dimethylphenoxy)propyl]amino-1-phenylethanol]				1/1	8/8	4/4	TOX, No. of animals exhibiting motor impairment/no. of used animals (neurotoxicity (rotarod); [5]): 2/4
Cc1cccc(Cl)c1OCCCNC(C)CO (racemic) [Compound 57, R,S-2N-[(2-chlor-6-methylphenoxy)propyl]amino-1-propanol]					8/8	4/4	TOX, No. of animals exhibiting motor impairment/no. of used animals (neurotoxicity (rotarod); [5]): 4/4; TOX, No. of animals exhibiting motor impairment/no. of used animals (neurotoxicity (rotarod); mice, dose 30 mg/kg b.w., 4 h): 1/2
CCC(CO)NCCCOc1c(C)cccc1Cl.Cl (racemic) [Compound 58, R,S-2N-[(2-chlor-6-methylphenoxy)propyl]amino-1-butanol hydrochloride]				2/3	6/8	4/4	TOX, No. of animals exhibiting motor impairment/no. of used animals (neurotoxicity (rotarod); mice, dose 300 mg/kg b.w., 4 h): 1/1
CNC(=O)C(C)NC(=O)COc1c(C)cccc1C (racemic) [Compound 67, D,L-2N-[(2,6-dimethylphenoxy)acetyl]aminopropionic acid N-methylamide]					1/8	4/4	responders at 100 mg/kg ([1]; Mus musculus, dose 100 mg/kg b.w., 0.5 h, read-out: MES, No. of protected animals/No. of used animals (converted)): 66.7%; responders at 300 mg/kg ([1]; Mus musculus, dose 300 mg/kg b.w., 0.5 h, read-out: MES, No. of protected animals/No. of used animals): 100%
